Test results taken from the NIST ThermoML archive (doi:10.1016/j.tca.2015.04.027).

Assays:
[1] = xn = mol fraction of the nth substance listed; conditions: 87 kPa, Liquid, Vibrating tube method
[2] = 87 kPa, Liquid, Vibrating tube method

OC(CCl)CCl [1,3-dichloro-2-propanol] + CCOS(=O)(=O)[O-].CCn1cc[n+](C)c1
mass density [kg/m3], [1]
Conditions	298.15 K	303.15 K	308.15 K	313.15 K	318.15 K
x1 = 0.0638	1239	1235.7	1232.4	1229	1225.55
x1 = 0.1199	1241.65	1238.3	1234.9	1231.6	1228.1
x1 = 0.2073	1246.7	1243.39	1239.87	1236.36	1232.86
x1 = 0.2973	1252.5	1249.05	1245.5	1241.9	1238.2
x1 = 0.3964	1259.8	1256.2	1252.5	1248.7	1245.1
x1 = 0.505	1269.3	1265.55	1261.5	1257.6	1253.9
x1 = 0.6616	1286.79	1282.36	1278.15	1274	1270
x1 = 0.7527	1300	1295.49	1291.17	1286.8	1282.3
x1 = 0.8236	1313	1308.44	1304	1299.5	1294.6
x1 = 0.9012	1329.59	1324.72	1319.69	1314.64	1309.58
x1 = 0.9645	1346	1340.45	1335.3	1329.4	1323.7
x1 = 1	1356.46	1350.55	1344.61	1338.56	1332.47

OC(CCl)CCl [1,3-dichloro-2-propanol] + C=CCO
mass density [kg/m3], [1]
Conditions	298.15 K	303.15 K	308.15 K	313.15 K	318.15 K
x1 = 0.0927	914.27	909.73	905.11	900.45	895.75
x1 = 0.1927	978.2	973.46	968.64	963.78	958.88
x1 = 0.2704	1024.81	1019.93	1014.97	1009.97	1004.93
x1 = 0.3548	1072.33	1067.35	1062.2	1057.06	1051.87
x1 = 0.4555	1125.39	1120.22	1114.94	1109.64	1104.29
x1 = 0.4973	1146.3	1141.05	1135.75	1130.35	1124.95
x1 = 0.6062	1198.1	1192.65	1187.2	1181.65	1176.1
x1 = 0.7166	1246.88	1241.35	1235.7	1230.01	1224.28
x1 = 0.8004	1281.46	1275.78	1270	1264.19	1258.35
x1 = 0.8893	1316.06	1310.26	1304.41	1298.46	1292.49
x1 = 0.9452	1336.81	1330.96	1325.07	1319.07	1313.05
x1 = 1	1356.46	1350.55	1344.61	1338.56	1332.47

OC(CCl)CCl [1,3-dichloro-2-propanol]
[2]
Conditions	mass density [kg/m3]
298.15 K	1356.46
303.15 K	1350.55
308.15 K	1344.61
313.15 K	1338.56
318.15 K	1332.47

CCOS(=O)(=O)[O-].CCn1cc[n+](C)c1 [1-ethyl-3-methylimidazolium ethyl sulfate]
[2]
Conditions	mass density [kg/m3]
298.15 K	1236.42
303.15 K	1233.09
308.15 K	1229.72
313.15 K	1226.36
318.15 K	1223

CCOS(=O)(=O)[O-].CCn1cc[n+](C)c1 [1-ethyl-3-methylimidazolium ethyl sulfate] + OC(CCl)CCl
[1], x2 = 0
Conditions	mass density [kg/m3]
298.15 K	1236.42
303.15 K	1233.09
308.15 K	1229.72
313.15 K	1226.36
318.15 K	1223

C=CCO [2-propenol] + OC(CCl)CCl
[1], x2 = 0
Conditions	mass density [kg/m3]
298.15 K	850.4
303.15 K	846.02
308.15 K	841.59
313.15 K	837.13
318.15 K	832.63

C=CCO [2-propenol] + CCOS(=O)(=O)[O-].CCn1cc[n+](C)c1
mass density [kg/m3], [1]
Conditions	298.15 K	303.15 K	308.15 K	313.15 K	318.15 K
x1 = 0.0988	1223.65	1220.28	1216.87	1213.47	1210.09
x1 = 0.1811	1211.14	1207.72	1204.27	1200.85	1197.44
x1 = 0.2833	1193.07	1189.54	1186.02	1182.52	1179.15
x1 = 0.4107	1165.72	1162.19	1158.64	1155.11	1151.59
x1 = 0.4939	1143.57	1140.1	1136.5	1133	1129.55
x1 = 0.5909	1112.3	1109.47	1105.88	1102.21	1098.55
x1 = 0.7086	1064.08	1061.4	1058	1054.02	1049.98
x1 = 0.8066	1012	1009.5	1005.8	1001.87	997.66
x1 = 0.9057	942.5	939.58	935.46	931.33	927.19
x1 = 0.9835	869.29	865.2	860.9	856.62	852.28
x1 = 1	850.4	846.02	841.59	837.13	832.63

C=CCO [2-propenol]
[2]
Conditions	mass density [kg/m3]
298.15 K	850.4
303.15 K	846.02
308.15 K	841.59
313.15 K	837.13
318.15 K	832.63

CCOS(=O)(=O)[O-].CCn1cc[n+](C)c1 [1-ethyl-3-methylimidazolium ethyl sulfate] + C=CCO
[1], x2 = 0
Conditions	mass density [kg/m3]
298.15 K	1236.42
303.15 K	1233.09
308.15 K	1229.72
313.15 K	1226.36
318.15 K	1223
